Experimental data reported in patent publication US20060229233A1, “Compositions and methods for treating neurological disorders” (ID Biomedical Corporation, priority 2004, published 2006).
Marks after values point to notes of the source that are not given here.

Columns and labels:
[1] = test system: Tg2576 APP transgenic mice; assay: EAE clinical score in PLP-immunized Tg2576 APP transgenic mice; type: in vivo; details: PLP immunization in CFA
From the text: In order to determine whether the effect was unique to MOG-induced EAE, EAE was induced with proteolipid protein (PLP) peptide (amino acids 139-151) in CFA. A 76% reduction of staining for Aβ fibrils was found and a 70% reduction in Aβ levels in animals with PLP induced EAE (p<0.02) (See Table 2, FIG. 3A). In order to induce EAE with PLP, Tg2576 mice as described by Hsiao, K. et al., Science 274 (5284):99-102 (1996) were utilized, which are on a B6/SJL background. Similar results were found with Tg2576 mice and J20 immunized mice described by Mucke et al., Ann NY Acad Sci (777) 82-88 (1996), to induce MOG-EAE (See Table 1). […] Of note, there was no difference in the total AS (amyloid) load in J20 mice greater than 13 months in age when compared to Tg2576 mice greater than 16 months of age.
Induction and clinical evaluation of EAE in APP+ mice. (B6D2)F1 or (B6XSJL)F1 APP+ (WT or B-cell deficient μMT) and non-tg littermates were immunized in the hind footpads with 100 μg MOG(35-55), PLP 139-151 or 100 μg β-amyloid peptide (1-40) in CFA. […] Animals were monitored for symptoms of EAE beginning 7 days after immunization and scored as follows: 0, no disease; 1, tail paralysis; 2, hind limb weakness; 3, hind limb paralysis; 4, hind limb plus forelimb paralysis; and 5, moribund.

Aβ = assay: Anti-Aβ antibody level (IgG, OD 450) in Tg2576 APP transgenic mice; type: in vivo
Experimental: Antibody levels were measured against Aβ in animals immunized with MOG or PLP to determine if there was cross reactivity with Aβ and Aβ antibody titers as compared to those from animals immunized with Aβ. […] To definitively establish that antibodies were not playing a role, 16-month-old J20 mice bred to μMT B-cell deficient mice were immunized with MOG 35-55 in CFA followed by administration of Pertussis toxin.

Aβ40 and Aβ42 = assay: Total brain Aβ by ELISA, Tg2576 APP transgenic mice; type: in vivo
From the text: (§1) In order to determine whether the effect was unique to MOG-induced EAE, EAE was induced with proteolipid protein (PLP) peptide (amino acids 139-151) in CFA. A 76% reduction of staining for Aβ fibrils was found and a 70% reduction in Aβ levels in animals with PLP induced EAE (p<0.02) (See Table 2, FIG. 3A). In order to induce EAE with PLP, Tg2576 mice as described by Hsiao, K. et al., Science 274 (5284):99-102 (1996) were utilized, which are on a B6/SJL background. Similar results were found with Tg2576 mice and J20 immunized mice described by Mucke et al., Ann NY Acad Sci (777) 82-88 (1996), to induce MOG-EAE (See Table 1). […]
(§2) Amyloid quantification. To quantify amyloid burden, the right hemisphere was extracted in 5.0 M guanidinium-chloride (pH 8) for 3 hours at room temperature. […] Brains were frozen in the presence of OCT paraformaldehyde, cut to 14-μm longitudinal sections used for immunohistological staining and amyloid fibril quantification. Well-defined hippocampal regions (Bregma −1.34), were selected for quantification of the amount of amyloid fibril in plaques using thioflavin-S staining. Images (magnification ×20) from these sections were collected from a 3CCD color video camera and analyzed with appropriate software (NIH; Imaging Research). The amount of amyloid fibril was expressed as a percentage per mm^2 hippocampal region as measured by the software.

Aβ fibrils = assay: Thioflavin-S quantification of Aβ fibrils in hippocampus, Tg2576 APP transgenic mice; type: in vivo
From the text: as §1, §2

activated microglia = assay: Microglia activation (CD11b staining) in PLP-immunized animals; type: in vivo, mice; details: PLP immunization; p<0.001
[2] = PLP immunization in CFA, Tg2576 APP transgenic mice

In the case of “proteolipid protein (PLP) peptide (amino acids 139-151) (CHCLGKWLGHPDK; UniProt P60202 139-151, looked up, fragment)”, the EAE score [1] is reported as 1.7 ± 0.7, the “anti-Aβ antibodies” value (Aβ; PLP immunization) is reported as “not detected” and the “Anti-Aβ Antibody” value (Aβ; level of OD 450 at titer of 1:500 IgG, Tg2576 APP transgenic mice) is reported as 0 OD 450. The “Total brain Aβ” value (Aβ40 and Aβ42; [2]) was 47.7 ± 18.4 ^a ng/ml, the “reduction in Aβ levels” value (Aβ40 and Aβ42; PLP induced EAE, Tg2576 mice) was 70% and the “% Area of thioflavin positive Aβ plaques (hippocampus)” value (Aβ fibrils; [2]) was 0.68 ± 0.2 ^b %. For the same substance, the “reduction of staining for Aβ fibrils” value (Aβ fibrils; PLP induced EAE, Tg2576 mice) was 76% and the “microglia activation” value (activated microglia) was “increased levels of microglia activation”.
